Test results: patent US20040019018A1, “Rigid pyrrolidone modulators of pkc” (priority 2003, published 2004)

Columns and labels:
sAPP α = assay: Secreted APP from human fibroblasts, Western blot with 6E10 (Example 14); format: cell-based; conditions: human fibroblasts (AD patients)
Description: Human fibroblasts were grown to confluence as above for PKC translocation. On the day of the experiment, cells were rinsed twice with serum-free Dulbecco's modified Eagle's medium (DMEM) and incubated in the same medium for 2 hours. Cells were treated with the drugs above, or DMSO vehicle as a control, for 2 hours. The medium was collected and spun for 5 min in a clinical centrifuge to remove cell debris. Proteins in the cell medium were precipitated using 10% trichloroacetic acid (TCA). Precipitated proteins were dissolved in electrophoresis buffer, separated on 8% SDS-PAGE as described above. Secreted APP was detected by Western blotting using a specific monoclonal antibody, 6E10.

PKC catalytic subunit = assay: Translocation of PKC catalytic subunit to the membrane fraction in human fibroblasts (Western blot); format: cell-based; conditions: 15 min treatment, preliminary results
Description: A growing list of evidence implicated that protein kinase C (PKC) activation can increase the rate of the non-amyloidogenic, i.e. α-secretase processing in vitro.
Human fibroblasts were grown to confluence in 100 mm tissue culture dishes. On the day of the experiment, cells were rinsed twice with serum-free Dulbecco's modified Eagle's medium (DMEM) and incubated in the same medium for 2 hours. Cells were treated with the drugs above, or DMSO vehicle as control, for 15 min. The cells were then rinsed twice with ice-cold phosphate buffered saline (PBS), scraped in PBS, and collected by centrifugation. The pellets were suspended in homogenization buffer containing: 20 mM Tris-HCl, pH 7.5, 2 mM EDTA, 2 mM EGTA, 5 mM DTT, 0.32 M sucrose, 2 mM PMSF, […] aprotinin, and 20 µg/ml leupeptin. Homogenates were immersed in liquid nitrogen thawed, and centrifuged at 12,000 g for 20 min, and supernatants were used as the cytosolic fraction (C). The pellets were homogenized in the same buffer containing 1.0% Triton X-100, incubated on ice for 45 min, and centrifuged at 12,000 g for 30 min and the supernatants were used as the membrane fractions (M). After protein determination, equal amounts of proteins (approx. […]) were mixed with electrophoresis buffer, boiled for 5 min, and separated on 8% SDS-PAGE, and electrophoretically transferred to PVDF membranes. […]

In the case of `CCCCCCCCC#Cc1ccc2c(c1)C(C)(C(C)C)C1C(=O)NC(CO)C21` [Compound 1, (3S, 8R, 9S, 10S)-6-(dec-1′-ynyl)-3-hydroxymethyl-8-isopropyl-8-methyl-3,3a,8,8a-tetrahydro-2H-2-aza-cyclopenta[a]inden-1-one], the “secretion of sAPP” value (sAPP α) is reported as “increased the secretion of sAPP” and the “translocation of PKC catalytic subunit from the cytosolic to the membrane fractions (activation)” value (PKC catalytic subunit) is reported as “able to cause the translocation”.
